Columns and labels:
[1] = biological target: T1, Serine/threonine-protein kinase TAO2 (Homo sapiens) (UniProt Q9UL54); assay: Inhibition of TAO2 Lys2 labeling site in human Huh-7 cell lysate at 1 uM by KiNativ Profiling analysis relative to control; type: subcellular
T1 sequence (whole entry): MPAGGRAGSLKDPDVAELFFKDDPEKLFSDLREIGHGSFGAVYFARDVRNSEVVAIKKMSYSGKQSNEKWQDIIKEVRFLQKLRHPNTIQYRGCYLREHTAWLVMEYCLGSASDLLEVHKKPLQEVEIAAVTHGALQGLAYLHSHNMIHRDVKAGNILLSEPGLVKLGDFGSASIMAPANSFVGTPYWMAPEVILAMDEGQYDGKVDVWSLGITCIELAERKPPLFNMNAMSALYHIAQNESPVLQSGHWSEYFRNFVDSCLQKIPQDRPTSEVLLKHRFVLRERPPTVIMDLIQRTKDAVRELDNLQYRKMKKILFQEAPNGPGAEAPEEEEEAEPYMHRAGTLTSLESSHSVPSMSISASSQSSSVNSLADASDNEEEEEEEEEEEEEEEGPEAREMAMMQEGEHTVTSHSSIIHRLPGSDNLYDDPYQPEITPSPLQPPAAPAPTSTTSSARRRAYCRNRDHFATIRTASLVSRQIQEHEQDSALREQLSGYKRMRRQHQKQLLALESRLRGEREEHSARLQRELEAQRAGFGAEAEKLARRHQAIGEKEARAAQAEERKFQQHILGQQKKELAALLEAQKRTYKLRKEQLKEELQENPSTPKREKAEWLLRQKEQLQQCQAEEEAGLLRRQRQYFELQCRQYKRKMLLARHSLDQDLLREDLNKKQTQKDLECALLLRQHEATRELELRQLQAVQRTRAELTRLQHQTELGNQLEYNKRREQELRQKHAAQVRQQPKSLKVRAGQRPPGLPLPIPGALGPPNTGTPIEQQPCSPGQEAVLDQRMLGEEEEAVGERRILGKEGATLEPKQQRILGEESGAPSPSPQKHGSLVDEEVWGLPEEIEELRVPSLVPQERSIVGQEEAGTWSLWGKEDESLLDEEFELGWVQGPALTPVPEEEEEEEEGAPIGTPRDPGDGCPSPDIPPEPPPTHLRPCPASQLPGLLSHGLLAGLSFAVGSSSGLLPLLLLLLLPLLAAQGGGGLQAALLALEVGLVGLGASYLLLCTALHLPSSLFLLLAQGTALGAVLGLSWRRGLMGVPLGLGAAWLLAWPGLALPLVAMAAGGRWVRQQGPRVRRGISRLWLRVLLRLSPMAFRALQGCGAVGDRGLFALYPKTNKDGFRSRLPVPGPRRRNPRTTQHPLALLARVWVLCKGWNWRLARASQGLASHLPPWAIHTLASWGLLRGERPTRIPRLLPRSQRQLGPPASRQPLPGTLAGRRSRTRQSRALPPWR

[2] = test system: Mast/stem cell growth factor receptor Kit (Homo sapiens), P10721 [L576P]; assay: Inhibition of KIT L576P mutant (unknown origin) at 1 uM by Ambit Kinomescan binding assay relative to control; values are per cent of control
Sequence of Mast/stem cell growth factor receptor Kit (Homo sapiens), P10721 [L576P] (P10721 whole entry L576P): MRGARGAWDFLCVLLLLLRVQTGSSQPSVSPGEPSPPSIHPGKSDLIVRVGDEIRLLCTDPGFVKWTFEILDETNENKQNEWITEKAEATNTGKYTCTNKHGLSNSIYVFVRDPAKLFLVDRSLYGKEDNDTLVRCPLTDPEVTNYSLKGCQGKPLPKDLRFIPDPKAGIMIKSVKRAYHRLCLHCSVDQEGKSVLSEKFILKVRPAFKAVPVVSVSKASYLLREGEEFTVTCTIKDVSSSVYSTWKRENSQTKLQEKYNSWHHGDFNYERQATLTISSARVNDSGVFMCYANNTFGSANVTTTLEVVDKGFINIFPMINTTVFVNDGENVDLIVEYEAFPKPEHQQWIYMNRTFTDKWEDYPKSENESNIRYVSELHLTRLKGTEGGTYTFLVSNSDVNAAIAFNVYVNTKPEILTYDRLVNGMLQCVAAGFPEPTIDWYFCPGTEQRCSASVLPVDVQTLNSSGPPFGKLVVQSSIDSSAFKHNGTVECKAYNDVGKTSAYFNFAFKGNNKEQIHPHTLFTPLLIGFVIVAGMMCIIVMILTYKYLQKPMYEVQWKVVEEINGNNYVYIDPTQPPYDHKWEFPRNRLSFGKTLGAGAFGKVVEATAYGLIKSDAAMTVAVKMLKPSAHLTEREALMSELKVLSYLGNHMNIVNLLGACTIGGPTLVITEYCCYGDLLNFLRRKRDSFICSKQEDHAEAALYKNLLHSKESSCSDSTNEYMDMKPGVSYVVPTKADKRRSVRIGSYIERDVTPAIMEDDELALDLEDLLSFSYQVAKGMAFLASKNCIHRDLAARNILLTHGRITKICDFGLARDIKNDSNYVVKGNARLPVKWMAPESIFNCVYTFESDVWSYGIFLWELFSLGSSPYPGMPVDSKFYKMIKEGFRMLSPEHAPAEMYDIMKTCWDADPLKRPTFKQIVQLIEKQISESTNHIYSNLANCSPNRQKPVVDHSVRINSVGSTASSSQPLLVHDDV

[3] = test system: Tyrosine-protein kinase ABL1 (Homo sapiens), P00519 [T315I]; assay: Inhibition of phosphorylated ABL1 T315I mutant (unknown origin) at 1 uM by Ambit Kinomescan binding assay relative to control; values are per cent of control
[4] = biological target: Tyrosine-protein kinase JAK1 (Homo sapiens) (UniProt P23458); assay: Inhibition of JAK1 domain ACT labeling site in human Huh-7 cell lysate at 1 uM by KiNativ Profiling analysis relative to control; type: subcellular
Sequence of Tyrosine-protein kinase JAK1 (Homo sapiens) (P23458 whole entry, the tested form may be a part): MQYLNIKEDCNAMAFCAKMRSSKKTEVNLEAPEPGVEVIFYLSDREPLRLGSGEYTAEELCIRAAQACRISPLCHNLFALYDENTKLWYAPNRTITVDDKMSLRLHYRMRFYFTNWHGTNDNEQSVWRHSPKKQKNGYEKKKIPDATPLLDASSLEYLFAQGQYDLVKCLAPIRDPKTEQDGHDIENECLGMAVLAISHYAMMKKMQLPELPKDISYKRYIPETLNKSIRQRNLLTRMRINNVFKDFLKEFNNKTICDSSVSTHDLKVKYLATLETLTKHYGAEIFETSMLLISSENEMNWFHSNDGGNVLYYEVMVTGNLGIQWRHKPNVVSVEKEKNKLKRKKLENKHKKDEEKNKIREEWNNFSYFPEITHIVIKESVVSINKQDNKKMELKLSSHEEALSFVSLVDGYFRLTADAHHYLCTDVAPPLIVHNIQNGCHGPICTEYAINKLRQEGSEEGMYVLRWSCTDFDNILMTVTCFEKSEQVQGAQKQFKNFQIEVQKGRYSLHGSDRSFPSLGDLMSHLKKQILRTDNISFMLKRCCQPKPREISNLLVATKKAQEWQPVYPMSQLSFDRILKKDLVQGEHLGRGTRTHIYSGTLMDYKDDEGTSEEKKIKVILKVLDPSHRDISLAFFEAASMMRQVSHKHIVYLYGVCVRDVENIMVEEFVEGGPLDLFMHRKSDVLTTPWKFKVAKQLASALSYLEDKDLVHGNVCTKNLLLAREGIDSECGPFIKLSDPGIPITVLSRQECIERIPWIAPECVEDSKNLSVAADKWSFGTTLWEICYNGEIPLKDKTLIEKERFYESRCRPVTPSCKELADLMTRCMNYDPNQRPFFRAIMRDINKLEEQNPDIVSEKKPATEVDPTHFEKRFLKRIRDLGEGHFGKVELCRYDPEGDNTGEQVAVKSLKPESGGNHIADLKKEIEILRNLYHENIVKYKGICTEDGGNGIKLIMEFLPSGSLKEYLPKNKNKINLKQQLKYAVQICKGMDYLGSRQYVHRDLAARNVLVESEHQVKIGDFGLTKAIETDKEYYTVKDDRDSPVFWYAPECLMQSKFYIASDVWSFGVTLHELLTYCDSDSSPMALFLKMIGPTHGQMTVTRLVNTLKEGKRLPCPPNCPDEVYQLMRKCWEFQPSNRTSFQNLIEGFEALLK

[5] = test system: Epidermal growth factor receptor (Homo sapiens), P00533 [UNDEFINED MUTATION]; assay: Inhibition of EGFR E746-A750del mutant (unknown origin) at 10 uM by Ambit Kinomescan binding assay relative to control
Sequence of Epidermal growth factor receptor (Homo sapiens), P00533 [UNDEFINED MUTATION] (P00533 whole entry, looked up, stated change not applied): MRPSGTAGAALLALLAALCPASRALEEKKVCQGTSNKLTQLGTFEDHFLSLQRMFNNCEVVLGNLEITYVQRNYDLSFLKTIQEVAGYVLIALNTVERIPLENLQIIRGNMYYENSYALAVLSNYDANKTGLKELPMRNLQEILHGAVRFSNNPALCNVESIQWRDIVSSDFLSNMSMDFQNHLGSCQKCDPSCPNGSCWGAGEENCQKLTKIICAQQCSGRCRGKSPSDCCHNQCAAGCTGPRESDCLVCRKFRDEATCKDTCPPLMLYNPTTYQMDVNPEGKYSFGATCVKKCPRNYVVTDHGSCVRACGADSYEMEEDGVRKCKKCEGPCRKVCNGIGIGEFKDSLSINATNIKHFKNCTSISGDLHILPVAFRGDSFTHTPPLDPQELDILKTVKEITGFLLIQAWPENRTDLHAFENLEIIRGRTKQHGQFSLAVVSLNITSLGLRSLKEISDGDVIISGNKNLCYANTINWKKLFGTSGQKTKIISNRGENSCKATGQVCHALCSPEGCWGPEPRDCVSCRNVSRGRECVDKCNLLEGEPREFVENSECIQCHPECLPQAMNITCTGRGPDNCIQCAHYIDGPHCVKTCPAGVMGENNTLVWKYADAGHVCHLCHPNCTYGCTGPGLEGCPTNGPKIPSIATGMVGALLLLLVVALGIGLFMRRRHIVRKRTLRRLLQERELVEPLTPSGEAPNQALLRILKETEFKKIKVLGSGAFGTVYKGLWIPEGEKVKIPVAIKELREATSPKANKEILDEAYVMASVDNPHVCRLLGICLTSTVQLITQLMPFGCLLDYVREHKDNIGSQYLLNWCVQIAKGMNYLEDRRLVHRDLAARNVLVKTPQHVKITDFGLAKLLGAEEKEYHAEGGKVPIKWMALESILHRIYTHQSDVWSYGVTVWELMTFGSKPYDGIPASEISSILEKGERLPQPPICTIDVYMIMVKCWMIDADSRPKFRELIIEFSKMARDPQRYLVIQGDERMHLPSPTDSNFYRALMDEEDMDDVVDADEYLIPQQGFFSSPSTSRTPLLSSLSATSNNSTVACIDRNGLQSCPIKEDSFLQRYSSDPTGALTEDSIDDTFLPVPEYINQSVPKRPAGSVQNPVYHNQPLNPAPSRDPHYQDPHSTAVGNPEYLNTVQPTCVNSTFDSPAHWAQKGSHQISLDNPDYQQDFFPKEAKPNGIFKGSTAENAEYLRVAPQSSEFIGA

[6] = test system: Epidermal growth factor receptor (Homo sapiens), P00533 [UNDEFINED MUTATION]; assay: Inhibition of EGFR L747-T751del mutant (unknown origin) at 10 uM by Ambit Kinomescan binding assay relative to control
[7] = biological target: T2, Mitogen-activated protein kinase kinase kinase 2 (Homo sapiens) (UniProt Q9Y2U5); assay: Inhibition of MAP3K2 Lys1 labeling site harbouring ELAVKQVQFDPDSPETSKEVNALECEIQLLK in human A-375 cells at 0.5 uM by KiNativ Profiling analysis relative to control; type: cell-based
T2 sequence (whole entry): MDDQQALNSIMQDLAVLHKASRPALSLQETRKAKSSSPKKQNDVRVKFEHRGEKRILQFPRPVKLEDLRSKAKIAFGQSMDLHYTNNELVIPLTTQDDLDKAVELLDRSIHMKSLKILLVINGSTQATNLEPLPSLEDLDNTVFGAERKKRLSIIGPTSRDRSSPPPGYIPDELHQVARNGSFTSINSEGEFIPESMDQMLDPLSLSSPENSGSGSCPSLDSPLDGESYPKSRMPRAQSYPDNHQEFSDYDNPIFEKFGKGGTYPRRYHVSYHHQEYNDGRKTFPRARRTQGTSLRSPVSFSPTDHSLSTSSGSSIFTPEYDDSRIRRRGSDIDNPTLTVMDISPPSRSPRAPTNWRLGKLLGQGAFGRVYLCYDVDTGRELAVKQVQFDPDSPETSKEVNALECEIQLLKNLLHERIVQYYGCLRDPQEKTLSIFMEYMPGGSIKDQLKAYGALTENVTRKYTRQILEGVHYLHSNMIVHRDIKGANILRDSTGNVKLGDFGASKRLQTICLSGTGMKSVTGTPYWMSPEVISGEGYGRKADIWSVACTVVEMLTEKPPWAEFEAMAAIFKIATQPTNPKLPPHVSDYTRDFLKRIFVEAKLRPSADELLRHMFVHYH

CNc1cc(Oc2cc(C(=O)Nc3cc(N4CCN(C)CC4)cc(C(F)(F)F)c3)ccc2C)ncn1
inhibition [1]: 7.5%

CCN1CCN(Cc2ccc(NC(=O)c3ccc(C)c(/C=C/c4cnc5[nH]ccc5c4OC)c3)cc2C(F)(F)F)CC1
residual activity [2]: 0.15%
percent of control [3]: 5.4%

CNc1cc(Oc2cc(C(=O)Nc3cc(-n4cnc(C)c4)cc(C(F)(F)F)c3)ccc2C)ncn1
inhibition [4]: 4.9%

CCN1CCN(Cc2ccc(NC(=O)c3ccc(C)c(Oc4ccnc5[nH]ccc45)c3)cc2C(F)(F)F)CC1
inhibition [5]: 8.4%
inhibition [6]: 1.1%
inhibition [7]: 16.9%
